The term IC50 denotes the concentration at which inhibition is half-maximal. Read a high IC50 as lower potency. For orientation: EC50 means the concentration needed to bring the measured effect to its halfway point.

Here are results for 15 compounds from patent publication EP4032896A1, “THIAZOLOPYRIMIDONES AS INHIBITORS OF DDR1/2 AND THERAPEUTIC USES THEREOF” (Fundación del Sector Público Estatal Centro Nacional de …, priority 2021, dated 2022).

Structures are written as SMILES.

One assay addresses T1, DDR2 (Homo sapiens, UniProt Q16832).
T1 construct: The enzymes were purchased as a catalytic domain GST Tag DDR1(#PR6913A) and DDR2 (#PR7167A); purchased ThermoFisher PR7167A
T1 sequence (Q16832 563-849 limits assumed): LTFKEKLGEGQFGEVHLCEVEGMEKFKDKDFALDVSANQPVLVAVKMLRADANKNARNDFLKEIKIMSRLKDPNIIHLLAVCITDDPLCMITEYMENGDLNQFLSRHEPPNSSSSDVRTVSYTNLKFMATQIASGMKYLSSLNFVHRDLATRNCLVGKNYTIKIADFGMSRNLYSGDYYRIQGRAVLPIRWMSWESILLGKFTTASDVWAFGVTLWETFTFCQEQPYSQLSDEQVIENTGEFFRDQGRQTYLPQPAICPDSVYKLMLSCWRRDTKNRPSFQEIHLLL
Put plainly: LanthaScreen Eu-Kinase Binding Assay (TR-FRET tracer displacement), DDR2. The settings on record: catalytic domain GST Tag DDR2; Kinase Tracer 178. The essentials:
(§1)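 TR-FRET displacement of Alexa Fluor Kinase Tracer 178 from GST-tagged catalytic-domain DDR1 or DDR2, detected with Eu-labelled anti-GST antibody under kit-recommended conditions. The acceptor/donor emission ratio (665/615 nm) was plotted against inhibitor concentration and fitted to a sigmoid dose-response curve.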
For orientation: Time-resolved FRET reads energy transfer from a long-lived donor to a nearby acceptor.

Assay [1] deals with T2, DDR1 (Homo sapiens, UniProt Q08345).
T2 construct: The enzymes were purchased as a catalytic domain GST Tag DDR1(#PR6913A); purchased ThermoFisher PR6913A
T2 sequence (Q08345 610-905 limits assumed): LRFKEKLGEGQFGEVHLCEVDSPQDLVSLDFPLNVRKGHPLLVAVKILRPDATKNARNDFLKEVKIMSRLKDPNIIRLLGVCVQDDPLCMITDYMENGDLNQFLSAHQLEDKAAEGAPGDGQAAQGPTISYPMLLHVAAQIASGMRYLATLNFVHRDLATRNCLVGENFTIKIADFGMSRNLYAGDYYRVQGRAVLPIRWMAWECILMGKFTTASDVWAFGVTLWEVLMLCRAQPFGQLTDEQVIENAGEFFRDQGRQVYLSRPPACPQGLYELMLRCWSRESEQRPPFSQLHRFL
Put plainly: LanthaScreen Eu-Kinase Binding Assay (TR-FRET tracer displacement), DDR1. The settings on record: catalytic domain GST Tag DDR1; Kinase Tracer 178. The essentials: as §1

Assay [2] deals with T3, DDR1 (Mus musculus, UniProt Q03146).
T3 construct: expressed in transfected cells; host or cells: HEK293T
T3 sequence (Q03146 20-911): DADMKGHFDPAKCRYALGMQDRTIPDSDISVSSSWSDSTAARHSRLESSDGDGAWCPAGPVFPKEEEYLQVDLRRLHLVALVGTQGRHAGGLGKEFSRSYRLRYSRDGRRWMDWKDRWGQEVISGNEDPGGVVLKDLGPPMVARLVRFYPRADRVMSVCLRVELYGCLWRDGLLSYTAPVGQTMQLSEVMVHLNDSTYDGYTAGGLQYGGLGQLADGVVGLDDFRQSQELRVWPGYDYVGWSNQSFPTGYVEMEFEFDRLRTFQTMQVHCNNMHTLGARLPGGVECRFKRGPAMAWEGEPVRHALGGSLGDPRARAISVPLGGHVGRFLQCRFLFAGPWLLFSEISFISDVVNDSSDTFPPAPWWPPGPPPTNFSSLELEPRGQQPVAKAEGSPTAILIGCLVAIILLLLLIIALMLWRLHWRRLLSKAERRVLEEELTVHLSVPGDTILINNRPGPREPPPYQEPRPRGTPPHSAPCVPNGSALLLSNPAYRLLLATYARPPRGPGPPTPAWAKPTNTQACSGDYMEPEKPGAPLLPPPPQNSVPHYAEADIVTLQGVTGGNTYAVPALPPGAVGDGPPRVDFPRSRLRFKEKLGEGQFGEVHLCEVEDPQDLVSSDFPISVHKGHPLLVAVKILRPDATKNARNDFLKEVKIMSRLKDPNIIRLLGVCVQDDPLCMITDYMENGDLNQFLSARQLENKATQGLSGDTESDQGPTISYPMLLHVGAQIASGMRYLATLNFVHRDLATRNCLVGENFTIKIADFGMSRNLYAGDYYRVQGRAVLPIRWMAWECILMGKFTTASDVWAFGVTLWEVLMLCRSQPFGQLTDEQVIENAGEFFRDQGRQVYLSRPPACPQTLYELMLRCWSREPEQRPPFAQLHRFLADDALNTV
In words: Cellular assay: inhibition of Collagen I-induced DDR1 autophosphorylation in HEK293T cells transiently transfected with DDR1 plasmid (Western blot). The class given is cell-based, human. The settings on record: pcDNA3.1 DDR1 WT mouse plasmid, compound 1 h, then 10 µg/mL Collagen I 1 h, P-DDR1 (Y513), read-out: pDDR1 EC50. Here is the method: DDR1/2 cellular assay: Transient transfection of HEK293T cells with DDR1 plasmid is used to study the inhibition of the autophosphorylation of DDR1 induced by Collagen I in cells. HEK293T are seeded, 6x10^5 cells per well in 6-well plates and incubated for 6 h at 37 °C, 5% CO2. Then, cells are transfected using Effectene reactive (Quiagen) with pcDNA3.1 DDR1 WT mouse plasmid. Cells are incubated with transfection complexes under normal growth conditions for 24 h. After that, medium is replaced with fresh medium and cells are incubated for an additional 18 h. Eight serial 1:3 compound dilutions are made in DMSO. The compounds are added to each well of 6 well cell plates and are incubated at 37 °C under CO2 atmosphere 1 h. DDR1's autophosphorylation is stimulated by 1h treatment with 10 µg/mL Collagen I. Then, cells are washed in PBS, lyse adding 100 µl of complete RIPA protein lysis buffer (RIPA Buffer, 1 mM DTT, 5 mM Bezamidine, 10 µg/mL Aprotinin, 10 µg/mL Leupeptin, 710 ng/mL Pepstatin A, 100 µg/mL Trypsin Inhibitor, 40 µg/mL Bestatin, completed with PhosSTOP EASYpack and complete Mini, EDTA-free) and incubated 20 minutes at 4 °C and then centrifugated. Lysates are kept at -80 °C. The protein content of the lysates is determined by DC protein assay (Biorad, Ref. 5000116). The proteins are resolved by SDS-PAGE and transferred to nitrocellulose membrane (GE Healthcare #10600003). The membranes are incubated overnight at 4 °C with antibodies specific for DDR1 (D1G6) (Cell signaling #5583), P-DDR1 (Y513) (E1N8F) (Cell Signaling # 14531) they are washed and then incubated with Alexa Fluor 680 goat anti-rabbit IgG secondary antibodies (Invitrogen, A21076). The bands are visualized and quantified using an Odyssey infrared imaging system (Li-Cor Biosciences). The percentage of DDR1 phosphorylation is finally plotted against concentration for each compound and EC50s for intracellular DDR1 inhibition are calculated using ActivityBase from IDBS.

For `CN1CCN(c2ccc(Nc3nccc(-c4sc5nccc(=O)n5c4-c4cccc(O)c4)n3)cc2)CC1` [Compound 56, 3-(3-Hydroxy-phenyl)-2-{2-[4-(4-methyl-piperazin-1-yl)-phenylamino]-pyrimidin-4-yl}-thiazolo[3,2-a]pyrimidin-5-one], the IC50 on DDR2 turned out to be 17.5 nM; on DDR1 [1] it was 5.63 nM. Further, the half-maximal effective concentration (EC50) on DDR1 [2] came out at 12.2 nM.
For the compound `O=c1ccnc2sc(-c3ccnc(Nc4cccc(N5CCN(CCO)CC5)c4)n3)c(-c3ccccc3Cl)n12` [Compound 38, 3-(2-Chloro-phenyl)-2-(2-{3-[4-(2-hydroxy-ethyl)-piperazin-1-yl]-phenylamino}-pyrimidin-4-yl)-thiazolo[3,2-a]pyrimidin-5-one], the IC50 on DDR2 came to 16.6 nM; at DDR1 [1], 4.22 nM. In addition, the EC50 at DDR1 [2] worked out at 28.1 nM.
Turning to `Cc1nc2sc(-c3ccnc(Nc4cccc(N5CCN(CCO)CC5)c4)n3)c(-c3ccccc3)n2c(=O)c1C` [Compound 75, 2-(2-{3-[4-(2-Hydroxy-ethyl)-piperazin-1-yl]-phenylamino}-pyrimidin-4-yl)-6,7-dimethyl-3-phenyl-thiazolo[3,2-a]pyrimidin-5-one], the IC50 on DDR2 was 55.8 nM; on DDR1 [1] it was 15.3 nM. Besides, the concentration giving a half-maximal response (EC50) at DDR1 [2] is 141 nM.
For `CN1CCN(c2ccc(Nc3nccc(-c4sc5nccc(=O)n5c4-c4ccccc4Cl)n3)cc2)CC1` [Compound 39, 3-(2-Chloro-phenyl)-2-{2-[4-(4-methyl-piperazin-1-yl)-phenylamino]-pyrimidin-4-yl}-thiazolo[3,2-a]pyrimidin-5-one], in that order: 21.5 nM, 7.03 nM and 35.3 nM.
As for `COc1cccc(-c2c(-c3ccnc(Nc4ccc(N5CCN(C)CC5)cc4)n3)sc3nccc(=O)n23)c1` [Compound 51, 3-(3-Methoxy-phenyl)-2-{2-[4-(4-methyl-piperazin-1-yl)-phenylamino]-pyrimidin-4-yl}-thiazolo[3,2-a]pyrimidin-5-one], the results for the IC50 on DDR2 and on DDR1 [1] were 27.7 nM and 8.34 nM, respectively. In addition, the EC50 on DDR1 [2] is 19.2 nM.
Take `NS(=O)(=O)c1cccc(Nc2nccc(-c3sc4nccc(=O)n4c3-c3ccccc3Cl)n2)c1` [Compound 37, 3-{4-[3-(2-Chloro-phenyl)-5-oxo-5H-thiazolo[3,2-a]pyrimidin-2-yl]-pyrimidin-2-ylamino}-benzenesulfonamide]: the IC50 on DDR2 was found to be 24.2 nM; at DDR1 [1], 5.19 nM. Moreover, the EC50 on DDR1 [2] worked out at 36 nM.
Regarding `CC(C)c1c(-c2ccnc(Nc3cccc(N4CCN(CCO)CC4)c3)n2)sc2nccc(=O)n12` [Compound 64, 2-(2-{3-[4-(2-Hydroxy-ethyl)-piperazin-1-yl]-phenylamino}-pyrimidin-4-yl)-3-isopropyl-thiazolo[3,2-a]pyrimidin-5-one], the IC50 stood at 90.6 nM on DDR2 and 15.3 nM at DDR1 [1]. The EC50 on DDR1 [2] stood at 58.7 nM.
For `CN1CCN(c2ccc(Nc3nccc(-c4sc5nccc(=O)n5c4-c4ccc(Cl)cc4)n3)cc2)CC1` [Compound 45, 3-(4-Chloro-phenyl)-2-{2-[4-(4-methyl-piperazin-1-yl)-phenylamino]-pyrimidin-4-yl}-thiazolo[3,2-a]pyrimidin-5-one], in that order: 12.6 nM, 4.23 nM and 7.63 nM.
For `CN1CCN(c2ccc(Nc3nccc(-c4sc5nccc(=O)n5c4-c4cccc(Cl)c4)n3)cc2)CC1` [Compound 42, 3-(3-Chloro-phenyl)-2-{2-[4-(4-methyl-piperazin-1-yl)-phenylamino]-pyrimidin-4-yl}-thiazolo[3,2-a]pyrimidin-5-one], in that order: 17.9 nM, 5.8 nM and 30.7 nM.
For `CCc1cc(=O)n2c(-c3ccccc3)c(-c3ccnc(Nc4cccc(N5CCN(CCO)CC5)c4)n3)sc2n1` [Compound 74, 7-Ethyl-2-(2-{3-[4-(2-hydroxy-ethyl)-piperazin-1-yl]-phenylamino}-pyrimidin-4-yl)-3-phenyl-thiazolo[3,2-a]pyrimidin-5-one], in that order: 11.6 nM, 12.9 nM and 39.5 nM.
Consider `O=c1ccnc2sc(-c3ccnc(Nc4cccc(N5CCN(CCO)CC5)c4)n3)c(-c3cccc(Cl)c3Cl)n12` [Compound 60, 3-(2,3-Dichloro-phenyl)-2-(2-{3-[4-(2-hydroxy-ethyl)-piperazin-1-yl]-phenylamino}-pyrimidin-4-yl)-thiazolo[3,2-a]pyrimidin-5-one], for which the IC50 at DDR2 was determined as 18.3 nM; at DDR1 [1] it was 5.43 nM. In addition, the concentration for a half-maximal effect (EC50) at DDR1 [2] turned out to be 31.9 nM.
For `NS(=O)(=O)c1cccc(Nc2nccc(-c3sc4nccc(=O)n4c3-c3cccc(Cl)c3Cl)n2)c1` [Compound 59, 3-{4-[3-(2,3-Dichloro-phenyl)-5-oxo-5H-thiazolo[3,2-a]pyrimidin-2-yl]-pyrimidin-2-ylamino}-benzenesulfonamide], the figures for the IC50 at DDR2 and at DDR1 [1] were 47.3 nM and 10.2 nM, respectively. The EC50 on DDR1 [2] stood at 99.3 nM.
For `CN1CCN(c2ccc(Nc3nccc(-c4sc5nccc(=O)n5c4-c4ccccc4)n3)cc2)CC1` [Compound 34, 2-{2-[4-(4-Methyl-piperazin-1-yl)-phenylamino]-pyrimidin-4-yl}-3-phenyl-thiazolo[3,2-a]pyrimidin-5-one], in that order: 39.4 nM, 13.4 nM and 15.7 nM.
Take `COc1ccccc1-c1c(-c2ccnc(Nc3cccc(S(N)(=O)=O)c3)n2)sc2nccc(=O)n12` [Compound 46, 3-{4-[3-(2-Methoxy-phenyl)-5-oxo-5H-thiazolo[3,2-a]pyrimidin-2-yl]-pyrimidin-2-ylamino}-benzenesulfonamide]: the IC50 on DDR2 was 20.1 nM; on DDR1 [1] it was 5.3 nM. The concentration for a half-maximal effect (EC50) on DDR1 [2] turned out to be 30.6 nM.
As for `COc1cccc(-c2c(-c3ccnc(Nc4cccc(N5CCN(CCO)CC5)c4)n3)sc3nccc(=O)n23)c1` [Compound 50, 2-(2-{3-[4-(2-Hydroxy-ethyl)-piperazin-1-yl]-phenylamino}-pyrimidin-4-yl)-3-(3-methoxy-phenyl)-thiazolo[3,2-a]pyrimidin-5-one], the IC50 at DDR2 is 79 nM; on DDR1 [1] it was 21.1 nM. Also, the EC50 at DDR1 [2] stood at 33.4 nM.
